Data on three compounds can be found in US20260374781A1, “NOVEL TRIHETEROCYCLIC COMPOUNDS” (IDENCE CO., LTD., priority 2022, published 2026).

The subject of one assay is AsPC-1 cells. The assay can be described thus: Cell Proliferation Assay, AsPC-1 (CellTiter-Glo 2.0 viability). The conditions noted are these: AsPC-1 pancreatic cancer (KRAS G12D mutation). The class given is cell-based. The procedure, abridged:
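AsPC-1 (KRAS G12D, RPMI-1640) and SW480 (KRAS G12V, DMEM) cells in 10% FBS, 2000 cells/well, exposed to 10-point 3-fold compound dilutions for 72 h at 37 °C. Viability by CellTiter-Glo 2.0 luminescence (ATP). IC50 from sigmoidal dose-response fit.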

For a further assay, the target named is T1, KRAS WT (Homo sapiens, UniProt P01116).
T1 construct: GST-tagged KRAS WT or mutant protein (amino acids 2-169)
The experiment in a line: KRAS Nucleotide Exchange Assay (SOS1-mediated), WT. The assay is classed as biochemical. The conditions noted are these: HTRF, 20 nM KRAS, 7.5 nM SOS1, 60 minutes preincubation, approximately 25 minutes reaction. From the text:
(§1) Test Example 1: KRAS Nucleotide Exchange Assay
(§2) Evaluation of the inhibitory effect of compounds on SOS1-mediated nucleotide exchange activity of KIRAS^WT, KRAS^G12D, KRAS^G12V, KRAS^G12C and KRAS^G13D mutants
(§3) The assay monitors SOS1 mediated exchange of KRAS bound unlabeled GDP to fluorescently labeled GTP. The detection is based on the transfer of energy between two fluorophores when they are in close proximity. Donor is the Tb cryptate labeled anti-GST antibody and acceptor is a DY-647P1 GTP.
(§4) • GST-tagged KRAS WT or mutant protein (amino acids 2-169), • SOS1 (amino acids 564-1049), • Labeled GTP (GTP-DY-647P1), • Assay Buffer (20 mM HEPES pH 7.4, 150 mM NaCl, 5 mM MgCl2, 1 mM DTT, 0.05% BSA, 0.0025% NP40)
• 1. […] The reaction was monitored at Ex/Em=(337/665; 337/620) using a Pherastar Plate Reader (BMG). • 6. HTRF signals were analyzed approximately 25 minutes after the start of the reaction (60 minutes reaction for G12V). • 7. Nucleotide exchange activity is expressed as a percentage difference compared to the DMSO reaction value, and the IC50 value was calculated based on the four-parameter logistic equation in GraphPad 4.0 software.
In general terms: In TR-FRET formats the signal depends on donor and acceptor labels being close together.

The target of the next assay is T2, KRAS G12D (Homo sapiens, UniProt P01116, G12D).
T2 construct: GST-tagged KRAS WT or mutant protein (amino acids 2-169)
The assay can be described thus: KRAS Nucleotide Exchange Assay (SOS1-mediated), G12D. Particulars: HTRF, 20 nM KRAS, 12.5 nM SOS1, 60 minutes preincubation, approximately 25 minutes reaction. The assay is classed as biochemical.
Source text: as §1, §2, §3, §4
(§5) • 1. KRAS protein was diluted with assay buffer to reach 1.5 times of the final concentration, then mixed with Tb cryptate anti-GST antibody and added at 10 μL to each assay well (all of the final concentration was 20 nM for KRAS^WT, KRAS^G12D, and KRAS^G12V) • 2. The compound was dissolved in DMSO and diluted to prepare 100 times of the final concentration. • 3. Compounds were dispensed into assay wells using an ECHO acoustic dispenser (Beckman), mixed gently with the KRAS/Ab mixture, and incubated for 60 minutes. • 4. SOS1 and labeled GTP were mixed, diluted to 3 times of the final concentration with assay buffer, and 5 μL of the solution was added to the assay well to initiate the reaction (final concentration of labeled GTP was […], final concentration of SOS1 was 7.5 nM in WT, 12.5 nM in G12D and 50 nM in G12V). Only assay buffer and labeled GTP were added to the blank well. • 5. The reaction was monitored at Ex/Em=(337/665; 337/620) using a Pherastar Plate Reader (BMG). • 6. HTRF signals were analyzed approximately 25 minutes after the start of the reaction (60 minutes reaction for G12V). • 7. Nucleotide exchange activity is expressed as a percentage difference compared to the DMSO reaction value, and the IC50 value was calculated based on the four-parameter logistic equation in GraphPad 4.0 software.

The target of a further assay is T3, KRAS G12V (Homo sapiens, UniProt P01116, G12V).
T3 construct: GST-tagged KRAS WT or mutant protein (amino acids 2-169)
The experiment in a line: KRAS Nucleotide Exchange Assay (SOS1-mediated), G12V. The assay is classed as biochemical. Particulars: HTRF, 20 nM KRAS, 50 nM SOS1, 60 minutes preincubation, 60 minutes reaction.
Source text: as §1, §2, §3, §4, §5

In a further assay the target is T4, KRAS G12C (Homo sapiens, UniProt P01116, G12C).
T4 construct: GST-tagged KRAS WT or mutant protein (amino acids 2-169)
The experiment in a line: KRAS Nucleotide Exchange Assay (SOS1-mediated), G12C. The assay is classed as biochemical. Particulars: HTRF, 60 minutes preincubation, approximately 25 minutes reaction.
Source text: as §1, §2, §3, §4, §5

The next assay deals with T5, KRAS G13D (Homo sapiens, UniProt P01116, G13D).
T5 construct: GST-tagged KRAS WT or mutant protein (amino acids 2-169)
The assay can be described thus: KRAS Nucleotide Exchange Assay (SOS1-mediated), G13D. The class given is biochemical. The conditions noted are these: HTRF, 60 minutes preincubation, approximately 25 minutes reaction.
Source text: as §1, §2, §3, §4, §5

The test system of the next assay is SW480 cells. The assay can be described thus: Cell Proliferation Assay, SW480 (CellTiter-Glo 2.0 viability). The assay is classed as cell-based. The conditions noted are these: Homo sapiens; SW480 colon cancer (KRAS G12V mutation); 72 hours. Here is the method:
Test Example 3: Cell Proliferation Assay
Cell viability testing of test compounds in AsPC-1 pancreatic cancer (KRAS G12D mutation) or SW480 colon cancer (KRAS G12V mutation) cells for 72 hours
The reference compound Staurosporine was purchased from Sigma-Aldrich (Saint Louis, MI), and CellTiter-Glo® 2.0 Luminescent cell viability assay reagent (cat #G9243) was purchased from Promega (Madison, WI). AsPC-1 and SW480 cell lines were purchased from American Type Culture Collection (Manassas, VA). AsPC-1 cells were cultured with RPMI-1640 (ATCC, cat #30-2001) and SW480 cells were cultured with DMEM (ATCC cat #30-2002).
A medium supplemented with 10% FBS (Sigma-Aldrich, cat #F2442) and 100 µg/mL of penicillin-streptomycin (Sigma-Aldrich, cat #P4333) was used. Cells were cultured at 37 °C in a humidified atmosphere of 5% CO2 and 95% air.
• 1. The test compound and reference compound, Staurosporine were dissolved in DMSO solution to prepare 20 mM (test compound) and 10 mM (control compound, Staurosporine) in the Source Plate and diluted with DMSO to 3-fold and 10 doses. • 2. From the Source Plate, 10 volumes of 125 nL test compound or 25 nL reference compound were dispensed into wells of a 384-well culture plate (VWR, cat #82050-076) using Echo 655. • 3. 25 μL of culture medium including 2000 AsPC-1 or SW480 cells was dispensed into each 384-well cell culture plate. • 4. Cells were cultured with the compound for 72 hours at 37 °C and 5% CO2 conditions. • 5. 25 μL of CellTiter-Glo 2.0 reagent was added to each well of the plate. • 6. The contents were mixed for 2 minutes on an orbital shaker, and the luminescence signal was stabilized at room temperature for 15 minutes. • 7. Luminescence signals were measured with an Envision 2104 Multilabel Reader (PerkinElmer, Santa Clara, CA), and the number of surviving cells was determined through quantification of ATP present in each culture. • 8. IC50 values were calculated based on the Sigmoidal dose-response equation in the GraphPad Prism 4 program.

pIC50: −log10 of the molar value.

T3 sequence (P01116 2-169 isoform P01116-2 G12V): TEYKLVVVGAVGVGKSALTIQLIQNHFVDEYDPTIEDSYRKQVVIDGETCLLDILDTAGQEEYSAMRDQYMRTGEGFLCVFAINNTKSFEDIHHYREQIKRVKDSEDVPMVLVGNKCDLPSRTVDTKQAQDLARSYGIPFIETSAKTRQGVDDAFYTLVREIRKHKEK
T2 sequence (P01116 2-169 isoform P01116-2 G12D): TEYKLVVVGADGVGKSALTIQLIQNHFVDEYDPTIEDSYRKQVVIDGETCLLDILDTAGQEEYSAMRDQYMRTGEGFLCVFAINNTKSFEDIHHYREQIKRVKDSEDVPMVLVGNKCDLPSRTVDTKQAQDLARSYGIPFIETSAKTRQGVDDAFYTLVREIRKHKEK
T4 sequence (P01116 2-169 isoform P01116-2 G12C): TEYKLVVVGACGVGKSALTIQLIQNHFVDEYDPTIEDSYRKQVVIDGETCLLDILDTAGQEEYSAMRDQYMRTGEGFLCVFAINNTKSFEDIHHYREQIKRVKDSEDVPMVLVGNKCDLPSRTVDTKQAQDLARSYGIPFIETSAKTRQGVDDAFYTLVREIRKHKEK
T5 sequence (P01116 2-169 isoform P01116-2 G13D): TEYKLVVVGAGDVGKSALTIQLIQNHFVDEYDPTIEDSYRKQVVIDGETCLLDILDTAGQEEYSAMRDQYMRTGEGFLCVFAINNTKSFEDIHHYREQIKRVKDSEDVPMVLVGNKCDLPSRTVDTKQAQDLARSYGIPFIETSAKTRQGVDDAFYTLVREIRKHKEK
T1 sequence (P01116 2-169 isoform P01116-2): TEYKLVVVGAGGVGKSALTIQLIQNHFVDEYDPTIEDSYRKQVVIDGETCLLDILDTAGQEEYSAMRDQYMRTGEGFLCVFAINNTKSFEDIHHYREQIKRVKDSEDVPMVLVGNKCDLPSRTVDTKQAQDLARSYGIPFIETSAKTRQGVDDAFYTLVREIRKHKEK

On to `CCc1c(F)ccc2cc(O)cc(-c3nc4c5c(nc(OC[C@@]67CCCN6C[C@H](F)C7)nc5c3F)N(CC3(N(C)C)CCC3)CCO4)c12` [Example 1, 4-(10-((1-(dimethylamino)cyclobutyl)methyl)-4-fluoro-2-(((2R,7aS)-2-fluorotetrahydro-1H-pyrrolizin-7a(5H)-yl)methoxy)-9,10-dihydro-8H-7-oxa-1,3,6,10-tetraazacyclohepta[de]naphthalen-5-yl)-5-ethyl-6-fluoronaphthalen-2-ol], for which the negative logarithm of the IC50 (pIC50) (in general, the IC50 on a negative log10 scale, so that one unit is a factor of ten) in the assay with AsPC-1 cells (Homo sapiens, ASPC1, 72 h) was below 5.00; against KRAS WT it was 8.21; against KRAS G12D, 8.90; against KRAS G12V, 7.48.
On to `C#Cc1c(F)ccc2cc(O)cc(-c3nc4c5c(nc(OC[C@@]67CCCN6C[C@H](F)C7)nc5c3F)N(C(C)c3cccnc3N)CCO4)c12` (stereo partly drawn) [Example 13, 4-(10-(1-(2-aminopyridin-3-yl)ethyl)-4-fluoro-2-(((2R,7aS)-2-fluorotetrahydro-1H-pyrrolizin-7a(5H)-yl)methoxy)-9,10-dihydro-8H-7-oxa-1,3,6,10-tetraazacyclohepta[de]naphthalen-5-yl)-5-ethynyl-6-fluoronaphthalen-2-ol], for which the pIC50 is above 6.00 in the assay with AsPC-1 cells (72 hours); 9.22 against KRAS G12C; 8.78 against KRAS G12D; 8.86 against KRAS G12V; 8.43 against KRAS G13D; above 6.00 in the assay with SW480 cells.
`CC(c1cccnc1N)N1CCOc2nc(-c3cc(O)cc4ccc(F)c(F)c34)c(F)c3nc(OC[C@@]45CCCN4C[C@H](F)C5)nc1c23` (stereo partly drawn) [Example 16, 4-(10-(1-(2-aminopyridin-3-yl)ethyl)-4-fluoro-2-(((2R,7aS)-2-fluorotetrahydro-1H-pyrrolizin-7a(5H)-yl)methoxy)-9,10-dihydro-8H-7-oxa-1,3,6,10-tetraazacyclohepta[de]naphthalen-5-yl)-5,6-difluoronaphthalen-2-ol]: the pIC50 in the assay with AsPC-1 cells (Homo sapiens, ASPC1, 72 h) was above 6.00; against KRAS G12C, 9.04; against KRAS G12D, 8.63; at KRAS G12V, 8.64; against KRAS G13D, 8.31; with SW480 cells, above 6.00.
